Measured values from US11091511B2, “Panaxdiol-type ginsenoside derivative, preparation method therefor and use thereof” (ARMY MEDICAL UNIVERSITY, priority 2016, dated 2021).
Marks after values point to notes of the source that are not given here.

Experiments:
RAW264.7 cells = experiment: RAW264.7 cell survival rate by CCK8 method; assay type: cell-based, mouse; conditions: compound 10 prnol/L, 0.1% DMSO, CCK8, x ± s, n = 3, normal saline control = 1
Experimental: In order to further verify the toxicities of the compounds prepared in Examples 1-30 of the present invention, the mouse macrophage cell line RAW264.7 was cultured, and the compounds prepared in Examples 1-30 of the invention were prepared to a concentration of […] using culture medium, wherein the solvent was normal saline, the co-solvent was dimethyl sulfoxide (DMSO, the final concentratoin was 0.1%), and a 0.1% DMSO saline control group was provided. The cell survival rate was determined by CCK8 method. The data were expressed as x±s. SPSS 10.0 line single-factor analysis of variance was performed among groups. The difference was significant when p<0.05.

[1] = system: RAW264.7 cell-derived foam cells; experiment: Formation of RAW264.7 cell-derived foam cells (ox-LDL, oil red O, absorbance 490 nm); assay type: cell-based, mouse; conditions: 48 hours, model group = 100%, x ± s, n = 3
Experimental: The effects of the compounds prepared in Examples 1-30 of the present invention on the formation of RAW264.7 cell-derived foam cells, the specific steps are as follows:
1. Cell culture and foam cell model establishment:
RAW264.7 cells were cultured in DMEM culture medium with high glucose level (GIBCO) to a cell concentration of 1×10^6, planted in a 6-well plate, and 60 mg/L of ox-LDL (oxidized modified low-density lipoprotein, Peking Union Medical College) was added, foam cells were obtained after 48 hours of incubation.
2. Grouping and index detection:
The obtained foam cells were divided into 61 groups, 3 well plates were included in one group. After the treatment by adding the drugs (100 μL/well) for 48 hours, the medium was discarded, and after oil red 0 staining, the excess amount of oil red 0 was washed away. The cells were dissolved in isopropanol and the absorbance values were measured at 490 nm. The OD value of the model group was 100%, and the OD value of each group corrected by the number of cells was compared with the model group to obtain the ratio of intracellular lipid content. The larger the value, the more intracellular lipids, the higher the degree of formation of foam cells.
Normal saline control group: normal saline
Low dose groups of the compounds prepared in Examples 1-30 of the present invention:
10 μmol/L (solvents were normal saline).
High dose groups of compounds prepared in Examples 1-30 of the present invention: 30 μmol/L (solvents were normal saline).
Data were expressed as x±s, and SPSS 10.0 line single-factor analysis of variance was performed amoung groups, a significant difference was indicated when p<0.05.

apoE−/− mice [2] = experiment: Atherosclerotic plaque area to total aortic area in apoE-/- mice on high-fat diet (Sudan IV staining); assay type: in vivo, mouse; conditions: intragastric 15 weeks, compounds 30 mg/(kg·d), simvastatin 10 mg/(kg·d), x ± s, n = 5, saline control 14.67 ± 3.58
Excerpt: The effects of the compounds prepared in Examples 1-30 of the present invention on the percentages of areas of atherosclerotic plaque formation to the area of the entire artery in apoE−/− mice with a high-fat diet and the levels of low-density lipoprotein cholesterol and the levels of high-density lipoprotein, the specific steps are as follows: 1. animals: 160 ten-week-old, healthy and clean-grade apoE−/− mice (purchased from Peking University Experimental Animal Center), males, weight: 22-25 g, were housed in separate cages in a sterile laminar feeding room and fed freely. The mice were fed by a high-fat diet (conventional feed+0.15% cholesterol+21% lard) for 25 weeks, the room temperature was kept at 24° C., relative humidity: 50%, illumination time 7:30-19:30. 2. Grouping, administration method: after 10 weeks of feeding, the animals were divided into the following 32 groups (n=5) by weight in a balanced and random manner, and killed 15 weeks after administration. Normal saline control group: normal saline, intragastric administration. Positive control group: simvastatin 10 mg/(kg·d), intragastric administration. The compound groups prepared in Examples 1-30 of the present invention (30 groups in total): each was intragastric administered 30 mg/(kg·d). (1) Analysis of the area of atherosclerotic plaque and its percentage to total area: after the animals were killed, the aortas were separated, from the roots of the aortas to the terminal bifurcations of the abdominal aortas. After formalin fixation, the aortas were stained with Sudan IV, the red stained parts were the areas of atherosclerotic lesions. The percentage of the area of the lesion area to total area was calculated using Image Pro Plus 5.0 software. Data were expressed as x±s, and SPSS 10.0 line single-factor analysis of variance was performed among groups, a significant difference was indicated when p<0.05.

apoE−/− mice [3] = experiment: Blood lipids (LDL-C, HDL-C) in apoE-/- mice on high-fat diet; assay type: in vivo, mouse; conditions: apoE-/- mice serum, intragastric 15 weeks, compounds 30 mg/(kg·d), simvastatin 10 mg/(kg·d), x ± s; for HDL-C: n = 5, saline control 3.74 ± 0.62; for LDL-C: n = 5, saline control 7.33 ± 1.03
Excerpt: The effects of the compounds prepared in Examples 1-30 of the present invention on the percentages of areas of atherosclerotic plaque formation to the area of the entire artery in apoE−/− mice with a high-fat diet and the levels of low-density lipoprotein cholesterol and the levels of high-density lipoprotein, the specific steps are as follows:
1. animals: 160 ten-week-old, healthy and clean-grade apoE−/− mice (purchased from Peking University Experimental Animal Center), males, weight: 22-25 g, were housed in separate cages in a sterile laminar feeding room and fed freely. The mice were fed by a high-fat diet (conventional feed+0.15% cholesterol+21% lard) for 25 weeks, the room temperature was kept at 24° C., relative humidity: 50%, illumination time 7:30-19:30.
2. Grouping, administration method:
after 10 weeks of feeding, the animals were divided into the following 32 groups (n=5) by weight in a balanced and random manner, and killed 15 weeks after administration.
Normal saline control group: normal saline, intragastric administration.
Positive control group: simvastatin 10 mg/(kg·d), intragastric administration.
The compound groups prepared in Examples 1-30 of the present invention (30 groups in total): each was intragastric administered 30 mg/(kg·d).
(2) Determination of the levels of total cholesterol (TC), low-density cholesterol lipoprotein (LDL-C) and high-density lipoprotein cholesterol (HDL-C): using ROCHE 7060 automatic biochemical analyzer for the determination.
Data were expressed as x±s, and SPSS 10.0 line single-factor analysis of variance was performed among groups, a significant difference was indicated when p<0.05.

TNF-α = experiment: Local TNF-α level in the arteries of apoE-/- mice (Millipore liquid phase chip); assay type: in vivo, mouse; conditions: high-fat diet, intragastric 15 weeks, compounds 30 mg/(kg·d), simvastatin 10 mg/(kg·d), x ± s, n = 5, saline control 25.58 ± 6.44
Excerpt: The effects of the compounds prepared in Examples 1-30 of the present invention on the percentages of areas of atherosclerotic plaque formation to the area of the entire artery in apoE−/− mice with a high-fat diet and the levels of low-density lipoprotein cholesterol and the levels of high-density lipoprotein, the specific steps are as follows: 1. animals: 160 ten-week-old, healthy and clean-grade apoE−/− mice (purchased from Peking University Experimental Animal Center), males, weight: 22-25 g, were housed in separate cages in a sterile laminar feeding room and fed freely. The mice were fed by a high-fat diet (conventional feed+0.15% cholesterol+21% lard) for 25 weeks, the room temperature was kept at 24° C., relative humidity: 50%, illumination time 7:30-19:30. 2. Grouping, administration method: after 10 weeks of feeding, the animals were divided into the following 32 groups (n=5) by weight in a balanced and random manner, and killed 15 weeks after administration. Normal saline control group: normal saline, intragastric administration. Positive control group: simvastatin 10 mg/(kg·d), intragastric administration. The compound groups prepared in Examples 1-30 of the present invention (30 groups in total): each was intragastric administered 30 mg/(kg·d). (3) Determination of TNF-α level: Millipore liquid phase chip method was used for the determination (Mcytomag-70K-3, Mouse Cytokine/Chemokine Magnetic Bead Panel). Data were expressed as x±s, and SPSS 10.0 line single-factor analysis of variance was performed among groups, a significant difference was indicated when p<0.05.

Row | SMILES | Cell Survival Rate (RAW264.7 cells) | Foam cell formation (%) ([1]; dose 10 μmol/L) | Foam cell formation (%) ([1]; dose 30 μmol/L) | Plaque area/total aorta area (%) (apoE−/− mice [2]) | HDL-C (apoE−/− mice [3]) | LDL-C (apoE−/− mice [3]) | TNF-α level (ng/g) (TNF-α)
1 | COC(=O)CNCCC[C@](C)(OC(C)=O)C1CC[C@]2(C)[C@@H]1C(OC(C)=O)CC1[C@@]3(C)CC[C@H](OC(C)=O)C(C)(C)C3CC[C@]12C (stereo partly shown) [Compound 24] | 0.89 ± 0.14 | 79 ± 18 ^a % | 66 ± 16 ^a % | 9.54 ± 2.65 ^a % | 4.68 ± 0.67 ^a mmol/L | 5.65 ± 1.04 ^a mmol/L | 15.47 ± 2.88 ^a ng/g
2 | COC(=O)[C@H](NCCC[C@](C)(O[C@H]1O[C@H](COC(C)=O)[C@@H](OC(C)=O)[C@H](OC(C)=O)[C@H]1OC(C)=O)C1CC[C@]2(C)[C@@H]1C(OC(C)=O)CC1[C@@]3(C)CC[C@H](OC(C)=O)C(C)(C)C3CC[C@]12C)[C@@H](C)O (stereo partly shown) [Compound 6] | 0.83 ± 0.09 | 73 ± 16 ^a % | 48 ± 14 ^a % | 8.16 ± 2.83 ^a % | 5.51 ± 0.94 ^a mmol/L | 6.04 ± 1.07 mmol/L | 11.35 ± 4.97 ^a ng/g
3 | COC(=O)[C@H](Cc1c[nH]c2ccccc12)NCCC[C@](C)(OC(C)=O)C1CC[C@]2(C)[C@@H]1C(OC(C)=O)CC1[C@@]3(C)CC[C@H](OC(C)=O)C(C)(C)C3CC[C@]12C (stereo partly shown) [Compound 30] | 0.95 ± 0.09 | 78 ± 12 ^a % | 64 ± 13 ^a % | 9.99 ± 3.68 ^a % | 4.42 ± 0.57 ^a mmol/L | 6.37 ± 0.75 mmol/L | 16.11 ± 4.19 ^a ng/g
4 | CC(=O)OC1CC2[C@@]3(C)CC[C@H](OC(C)=O)C(C)(C)C3CC[C@@]2(C)[C@]2(C)CCC([C@](C)(CCC3OC3(C)C)OC(C)=O)[C@@H]12 (stereo partly shown) [Compound 17] | 0.87 ± 0.07 | 70 ± 15 ^a % | 55 ± 21 ^a % | 8.53 ± 2.57 ^a % | 5.55 ± 0.56 ^a mmol/L | 4.83 ± 1.51 ^a mmol/L | 15.27 ± 4.65 ^a ng/g
5 | COC(=O)CC[C@H](NCCC[C@](C)(O[C@H]1O[C@H](COC(C)=O)[C@@H](OC(C)=O)[C@H](OC(C)=O)[C@H]1OC(C)=O)C1CC[C@]2(C)[C@@H]1C(OC(C)=O)CC1[C@@]3(C)CC[C@H](OC(C)=O)C(C)(C)C3CC[C@]12C)C(=O)OC (stereo partly shown) [Compound 8] | 0.82 ± 0.06 | 73 ± 16 ^a % | 51 ± 17 ^a % | 9.31 ± 3.58 ^a % | 5.63 ± 0.84 ^a mmol/L | 4.34 ± 1.19 ^a mmol/L | 12.67 ± 3.11 ^a ng/g
6 | COC(=O)CCC(NCCC[C@](C)(OC(C)=O)C1CC[C@]2(C)[C@@H]1C(OC(C)=O)CC1[C@@]3(C)CC[C@H](OC(C)=O)C(C)(C)C3CC[C@]12C)C(=O)OC (stereo partly shown) [Compound 23] | 1.01 ± 0.09 | 68 ± 18 ^a % | 47 ± 19 ^a % | 8.64 ± 2.46 ^a % | 5.39 ± 0.61 ^a mmol/L | 4.28 ± 1.46 ^a mmol/L | 12.61 ± 374^a ng/g
7 | CC(=O)OC1CC2[C@@]3(C)CC[C@H](OC(C)=O)C(C)(C)C3CC[C@@]2(C)[C@]2(C)CCC([C@](C)(CCC=C(C)C)OC(C)=O)[C@@H]12 (stereo partly shown) [Compound 16] | 0.88 ± 0.01 | 81 ± 12% | 72 ± 21 ^a % | 10.41 ± 2.09 ^a % | 4.12 ± 0.90 ^a mmol/L | 5.18 ± 1.26 ^a mmol/L | 15.94 ± 4.29 ^a ng/g
